Data taken from patent US20180265867A1, “NUCLEIC ACID MOLECULES WITH ENHANCED ACTIVITY” (priority 2015, published 2018).
d = 2'-deoxy (DNA); r = 2'-OH (RNA)

Assays:
Assay type in all cases: cell-based, human
GAPDH [1] = experiment: Western blot of GAPDH protein in MG63 cells; conditions: MG63, 50 nM, at 48 h, no transfection reagent
Description: (§1) After 48 hours of transfection, cells were washed twice with ice-cold PBS and lysed in RIPA lysis buffer (50 mM Tris-HCl, pH 8.0, with 150 mM NaCl, 1.0% Igepal CA-630 (NP-40), 0.5% sodiumdeoxycholate, 0.1% SDS, and 1.0% protease inhibitor cocktail from SIGMA-ALDRICH®). Lysates were incubated on ice for 30 minutes and centrifuged at 10,000 rpm for 20 minutes to collect supernatant. Coomassie Plus—The Better Bradford Assay™ Reagent (Thermo Scientific) was used to measure protein concentrations. Thereafter, 20 μg of soluble protein was separated by SDS-PAGE and transferred to polyvinylidene difluoride membrane (Millipore). Primary antibodies against GAPDH (1:1000 dilution), β-catenin (1:1000 dilution; SIGMA-ALDRICH®), β-actin (1:1000; Cell Signaling Technology®) were used to probe the protein bands. Anti-Rabbit-HRP conjugated secondary antibodies (1:3000 dilution; R&D Systems®) were used to detect the primary antibodies, followed by the target protein visualization with EMD Millipore Immobilon™ Western Chemiluminescent HRP Substrate (ECL). […]
(§2) To further validate our results, we tested the gene knockdown efficiency of another gene CTNNB1 (β-catenin), which is expressed in MG63 cells. We performed a time course experiment (24, 48 and 72 h) by targeting CTNNB1 and GAPDH in MG63 cells and quantified the mRNA and protein levels using qRT-PCR and Western blot experiments respectively (FIG. 8).

β-catenin = experiment: Western blot of β-catenin protein in MG63 cells; conditions: MG63, 50 nM, at 48 h, β-catenin cpRNA, no transfection reagent
Description: as §1, §2

MG63 cells = experiment: Flow cytometry uptake kinetics and ODN2006 blocking in MG63 cells
Description: To determine cpRNA cellular uptake kinetics, FACS experiments were repeated as mentioned above using MG63 cells, where Cy3-cpRNA was treated for different time points. Briefly, Cy3-cpRNA (50 nM) was added to cells, followed by incubation for 0.5 h, 1 h, 1.5 h, 2 h, 3 h and 4 h respectively. The cells were subsequently trypsinised and analyzed by FACS as mentioned above.
To perform […] blocking studies, seeded MG63 cells were incubated with 600 nM 3′-FITC labeled ODN2006 for 1 h, followed by addition of 50 nM cpRNA. Cells were incubated for additional 0.5 h, 1 h, 1.5 h, 2 h, 3 h and 4 h respectively, trypsinised and analyzed by FACS analysis as mentioned above.
To verify if the uptake mechanism of cpRNA was analogous to viral RNA and the RNA mimic polyriboinosinic:polyribocytidylic acid or poly(I:C), blocking studies were performed using the Btype single-stranded DNA sequence ODN2006 which share a common uptake receptor. This synthetic phosphorothioate modified oligo, though initially identified as a TLR9 agonist, blocks cellular uptake of viral RNA and poly(I:C) by preferentially competing with the common RNA uptake receptor. Blocking experiment were performed by pre-incubating the cells with FITC labeled ODN2006 for 1 h, followed by the addition of Cy3-labeled cpRNA. The blocking studies and cellular uptake was monitored using FACS analysis at different time points for up to 4 h. As a control experiment, the uptake kinetics was performed in the absence of FITC labeled ODN2006. […] These experiments verified the involvement of an alternate uptake mechanism and indicated the presence of a ubiquitous RNA capture receptor that required ˜1 h of maturation time before the endocytosis process could initiate.

GAPDH [2] = experiment: Energy dependence of cpRNA uptake: transfection at 4° C. or 37° C., GAPDH knockdown; conditions: carrier-free
Description: To determine, if cellular uptake of cpRNA is an energy dependent endocytosis process, transfection experiments were performed at 4° C. and 37° C. Briefly, HCT116, HOB and MG63 cells were plated and incubated with cpRNA (dT5 or dA5 or scrambled siRNA sequence) at 4° C. or 37° C. for 4 h. After 4 h, medium was replaced with fresh medium and the cells were incubated for additional 24 h. Untreated cells were used as controls. Each transfection was performed in triplicate. […] Cellular uptake using these siRNA sequences was reduced by nearly 30% when experiments were performed at 4° C., see FIG. 4.
Next, it was investigated if the cellular uptake mechanism of cpRNA occurred by endocytosis. Transfection experiments were performed with dT5-modified cpRNA at 4° C. and found lower RNAi activity (50% gene knockdown) compared to activity at 37° C. […] Upon endocytosis, the 5-nt overhang length participated in an unknown endosomal escape mechanism that promoted cytosol transport of RNA. […] TLR-7, -8 and -9, selectively bind single-stranded DNA or RNA sequences with TLR-7 and -8 preferentially bind U and G rich sequence while TLR-9 bind CpG nt repeats. TLR3, on the other hand, nonspecifically binds the 21mer RNA duplex after dimerization of the receptor to form a 2:1 TLR3-RNA complex. […]

Substance: dT5: GAPDH siRNA, sense SEQ ID NO: 3 with dT5 3′-overhang, antisense SEQ ID NO: 2 with dT2 (sense CCGAGCCACAUCGCUCAGATTTTT; antisense UCUGAGCGAUGUGGCUCGGTT; sense: sugars from the 5' end r19 d5, backbone not given here; antisense: sugars from the 5' end r19 d2, backbone not given here)
- GAPDH protein level (GAPDH [1]): complete knockout
- CTNNB1 protein level (β-catenin): complete knockout
- effect of ODN2006 on cellular uptake (MG63 cells; MG63 cells pre-incubated 1 h with 600 nM FITC labeled ODN2006): did not inhibit uptake
- time after which cellular uptake was initiated (MG63 cells; MG63 cells, 50 nM, 37° C.): ~1 h
- time in which uptake finished after initiation (MG63 cells; MG63 cells, 50 nM, 37° C.): 2 h
- GAPDH gene knockdown at 4° C. (GAPDH [2]; incubation at 4° C. for 4 h, then 24 h): 50%
- GAPDH gene knockdown at 37° C. (GAPDH [2]; incubation at 37° C.): 80%
